US7595320B2, “Hydrazinocarbonyl-thieno[2,3-C]pyrazoles, process for preparing them, compositions containing them and use thereof” (Aventis Pharma S.A., priority 2005, dated 2009)
Where a name gives a salt, the structure may show the parent alone.

Experiments:
[1] = target: T1, Aurora1 (Homo sapiens, UniProt Q96GD4); assay: Aurora1 enzymatic test, NuMA phosphorylation with [33P]ATP, Flashplate; format: biochemical; settings: Aurora-B/INCENP-C3 recombinant complex, 1 μM ATP
T1 construct: His tag (N); made in house
T1 sequence (Q96GD4 whole entry, species assumed): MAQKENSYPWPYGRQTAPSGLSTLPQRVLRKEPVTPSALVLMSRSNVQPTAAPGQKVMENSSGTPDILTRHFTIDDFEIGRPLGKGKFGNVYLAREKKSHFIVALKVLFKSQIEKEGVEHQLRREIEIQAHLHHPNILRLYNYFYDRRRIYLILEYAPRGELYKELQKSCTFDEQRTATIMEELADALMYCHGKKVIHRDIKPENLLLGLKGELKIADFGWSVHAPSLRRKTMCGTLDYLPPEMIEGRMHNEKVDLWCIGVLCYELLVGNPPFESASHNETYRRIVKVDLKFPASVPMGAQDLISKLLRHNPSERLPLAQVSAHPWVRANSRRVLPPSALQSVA
T1 sequence (Q9NQS7 835-903 partner limits assumed, species assumed): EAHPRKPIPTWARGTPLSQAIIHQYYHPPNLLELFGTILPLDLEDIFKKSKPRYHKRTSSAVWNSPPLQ
Method in brief: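 Recombinant His-tagged Aurora-B/INCENP-C3 complex (10 nM) phosphorylates 500 nM His-NuMA fragment with 1 µM ATP plus [33P]ATP, 30 minutes at 37° C in Tris pH 7.5 with 5 mM MgCl2, on nickel-chelate Flashplates. Incorporated 33P counted; percent inhibition versus enzyme control after no-enzyme background subtraction.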

[2] = target: T2, Aurora2 (Homo sapiens, UniProt O14965); assay: Aurora2 enzymatic test, NuMA phosphorylation with [33P]ATP, Flashplate; format: biochemical; settings: whole recombinant protein, 1 μM ATP
T2 construct: Aurora2: whole recombinant protein comprising an N-terminal histidine tail; His tag (N); made in house; host or cells: E. coli
T2 sequence (O14965 1-403): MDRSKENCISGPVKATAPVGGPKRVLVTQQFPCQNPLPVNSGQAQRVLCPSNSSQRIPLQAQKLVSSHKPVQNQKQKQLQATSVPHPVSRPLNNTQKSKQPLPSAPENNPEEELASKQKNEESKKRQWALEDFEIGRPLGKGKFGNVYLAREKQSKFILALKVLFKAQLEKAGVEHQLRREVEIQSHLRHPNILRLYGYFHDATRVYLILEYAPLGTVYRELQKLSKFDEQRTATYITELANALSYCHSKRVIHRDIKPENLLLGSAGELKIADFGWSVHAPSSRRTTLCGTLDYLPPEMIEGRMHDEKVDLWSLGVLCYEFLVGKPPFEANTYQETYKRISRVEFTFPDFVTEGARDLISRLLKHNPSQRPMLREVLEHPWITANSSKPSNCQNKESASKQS
Method in brief: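 Full-length His-tagged Aurora2 (E. coli, >82% pure) at 10 nM phosphorylated 500 nM His-NuMA fragment on Ni-chelate Flashplates. Conditions were pH 7.5 Tris buffer with 10 mM MgCl2, 1 μM ATP plus [33P]ATP, 30 min at 37 °C.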

[3] = target: T3, CDK2/cycline E (Homo sapiens, UniProt P24941); assay: CDK2/cyclineE Flashplate test in 96-well format; format: biochemical; settings: CDK2/cycline E complex, 1 μM ATP
T3 construct: made in house; host or cells: Sf21 insect cells (baculovirus coinfection)
Method in brief: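 Recombinant human CDK2/cyclin E (His-tagged cyclin E, coexpressed in Sf21 cells), 20 nM, phosphorylates biotinylated pRb peptide (10 μM) with 1 μM ATP plus [γ-33P]ATP in HEPES pH 7.5, MgCl2, DTT at 30 °C. Inhibitors tested at 10 μM down to 0.014 μM; 33P incorporation read by scintillation on streptavidin plates.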

[4] = target: T4, Tie2 (Homo sapiens, UniProt Q02763); assay: Tie2 kinase test, phosphorylation of PLC with GST-Tie2; format: biochemical; settings: GST-Tie2 intracellular domain 776-1124
T4 construct: amino acids of the intracellular domain 776-1124; made in house; host or cells: baculovirus expression (pFastBacGT vector)
T4 sequence (Q02763 776-1124): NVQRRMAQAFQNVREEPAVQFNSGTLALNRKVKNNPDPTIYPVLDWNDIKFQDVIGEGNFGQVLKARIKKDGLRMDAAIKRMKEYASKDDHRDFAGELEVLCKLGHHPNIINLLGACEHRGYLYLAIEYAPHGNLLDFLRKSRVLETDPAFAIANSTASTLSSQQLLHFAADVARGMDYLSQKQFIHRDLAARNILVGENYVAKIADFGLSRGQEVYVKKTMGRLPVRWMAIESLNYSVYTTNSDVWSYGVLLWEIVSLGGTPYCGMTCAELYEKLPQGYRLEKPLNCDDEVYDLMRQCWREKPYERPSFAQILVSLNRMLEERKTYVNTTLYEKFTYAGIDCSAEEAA

`CN(Cc1ccc(C(=O)Nc2n[nH]c3sc(C(=O)NN(C)c4ccccc4)cc23)cc1)c1ccccc1` [Example 24, 4-[(methylphenylamino)methyl]-N-[5-(N′-methyl-N′-phenylhydrazinocarbonyl)-1H-thieno[2,3-c]pyrazol-3-yl]benzamide] showed an IC50 [1] of 288 nM, an IC50 [2] of 49 nM and an IC50 [3] of 1490 nM. The IC50 [4] was 1030 nM and the melting point was 242 °C.
`CN(NC(=O)c1cc2c(NC(=O)c3ccc(Br)cc3)n[nH]c2s1)c1ccccc1` [Example 9, 4-bromo-N-[5-(N′-methyl-N′-phenylhydrazinocarbonyl)-1H-thieno[2,3-c]pyrazol-3-yl]benzamide] showed an IC50 [1] of 131 nM, an IC50 [2] of 157 nM and an IC50 [3] of 65 nM. It also gave an IC50 [4] of 820 nM and a melting point of 172 °C.
`CN1CCCN(Cc2ccc(C(=O)Nc3n[nH]c4sc(C(=O)NN(C)c5ccc(Cl)cc5)cc34)cc2)CC1` (as salt: salt) [Example 12b, 4-(4-methylperhydro-1,4-diazepin-1-ylmethyl)-N-[5-(N′-(4-chlorophenyl)-N′-methylhydrazinocarbonyl)-1H-thieno[2,3-c]pyrazol-3-yl]benzamide] showed a melting point of 162 °C.
Compound `CN(NC(=O)c1cc2c(NC(=O)c3ccc(CN4CCOCC4)cc3)n[nH]c2s1)c1ccccc1` [Example 8, N-[5-(N′-methyl-N′-phenylhydrazinocarbonyl)-1H-thieno[2,3-c]pyrazol-3-yl]-4-morpholin-4-ylmethylbenzamide] has an IC50 [1] of 29 nM, an IC50 [2] of 8 nM and an IC50 [3] of 134 nM. For the same compound, the IC50 [4] was 252 nM and the melting point was 242 °C.
